According to patent US12098407B2, “Methods for decoupling yield and productivity of a non-catabolic compound produced by a host cell” (AMYRIS, INC., priority 2019, dated 2024):
Read-outs that look alike come from different tables or passages of the source.

Key:
biomass yield = assay: Concentration of weak organic acid required to reduce the biomass yield to 50% of the reference condition; format: cell-based; conditions: concentration required to reduce the biomass yield to 50% of the reference condition
HMGR from E. faecalis = HMGR from E. faecalis (Enterococcus faecalis, UniProt Q9FD70); conditions: class II HMGR, source E. faecalis; read-out: Km^NADPH; cited from earlier work
HMGR from S. aureus = conditions: class II HMGR, source S. aureus, cited from earlier work
HMGR from A. fulgidus = target: T1, HMGR from A. fulgidus (Archaeoglobus fulgidus, UniProt O28538); conditions: class II HMGR, source A. fulgidus, cited from earlier work
T1 sequence (O28538 1-436): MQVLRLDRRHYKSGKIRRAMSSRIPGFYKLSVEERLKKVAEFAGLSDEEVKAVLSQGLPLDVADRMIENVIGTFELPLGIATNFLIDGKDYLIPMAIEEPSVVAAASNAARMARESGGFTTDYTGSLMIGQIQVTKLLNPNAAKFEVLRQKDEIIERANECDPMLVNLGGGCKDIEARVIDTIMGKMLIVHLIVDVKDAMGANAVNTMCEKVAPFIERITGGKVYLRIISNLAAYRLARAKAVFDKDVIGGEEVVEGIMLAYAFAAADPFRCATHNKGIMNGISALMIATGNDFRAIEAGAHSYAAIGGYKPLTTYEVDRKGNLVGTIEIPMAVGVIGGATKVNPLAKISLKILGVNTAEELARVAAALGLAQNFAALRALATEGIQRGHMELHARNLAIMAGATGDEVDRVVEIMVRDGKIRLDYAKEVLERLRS

[1] = test system: farnesene-producing strain; assay: Farnesene-producing strain treated with different concentrations of benzoic acid; format: cell-based; conditions: FIG. 8
Description: Benzoic acid can be used to deplete ATP in the cell by forcing the cells to use ATP to pump out excess protons that are moved into the cytoplasm by the benzoyl […]. […] The yield (qP/qS) was calculated from measured specific sugar uptake rate and specific farnesene production rate.
Single colonies were grown on CSM agar plates, then picked into sterile 96-well microtiter plates (1.1 mL working volume Axygen) containing 360 ul of defined liquid growth medium (LGM; as referenced in Example 1, Westfall et al, 2012) with 50 mM succinate (pH 5.0) and 2% sucrose+1% maltose+2 g/L lysine grown for 72 h at 28 C. […] Taking measurements of farnesene, biomass, and total residual sugar during log phase growth (at two times, T1 and T2) allows for the determination of specific productivity, growth rate, and specific sugar uptake rate. Farnesene is measured using full-well extraction with isopropanol, and quantified by UV absorbance at 220 nm with reference to a standard curve. Biomass was measured by assaying the fluorescent signal of intracellular tryptophan with an excitation wavelength of 290 nm and detection at 350 nm (UVOD). The relationship between this tryptophan signal and actual biomass is strain-dependent, and is determined empirically for each strain assayed. We do this by measuring both UVOD and biomass absorbance (OD) just prior to the start of production plates; this gives a per-well OD/UVOD conversion factor that is then used to convert UVOD signal at the end of production runs back to biomass. Another conversion we must make in determining biomass is from optical density (OD) to dry cell weight; this is also determined empirically. […] Growth rates were determined by applying a linear regression to LN (OD) vs time. Total reducing sugars was measured by using an enzymatic determination of sucrose, fructose and glucose with an output of NADH absorption read at 340 nm, as described in various commercial kits, as such those sold by Sigma Aldrich.

HMGR from P. mevalonii = target: T2, HMGR from P. mevalonii (Pseudomonas mevalonii, UniProt P13702); conditions: class II HMGR, source P. mevalonii; read-out: Km^NADH; cited from earlier work
T2 sequence (P13702 1-428): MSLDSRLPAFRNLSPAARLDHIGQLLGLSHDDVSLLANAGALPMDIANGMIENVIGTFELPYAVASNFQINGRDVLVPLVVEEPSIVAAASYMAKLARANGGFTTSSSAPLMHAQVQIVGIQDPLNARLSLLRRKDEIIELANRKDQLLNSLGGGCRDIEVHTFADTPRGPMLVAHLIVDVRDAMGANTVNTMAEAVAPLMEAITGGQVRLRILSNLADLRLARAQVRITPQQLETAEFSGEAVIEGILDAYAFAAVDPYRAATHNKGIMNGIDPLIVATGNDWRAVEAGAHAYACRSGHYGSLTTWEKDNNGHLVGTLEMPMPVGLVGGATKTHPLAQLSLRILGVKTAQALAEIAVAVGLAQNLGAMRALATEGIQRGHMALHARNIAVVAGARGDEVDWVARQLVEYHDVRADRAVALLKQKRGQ

[2] = increasing concentrations of benzoic acid

Structure (SMILES): CCC(=O)O [Propionic Acid]
- YCR50 (biomass yield): 20.0 mM

Structure (SMILES): NC(=O)C1=CN([C@@H]2O[C@H](COP(=O)(O)OP(=O)(O)OC[C@H]3O[C@@H](n4cnc5c(N)ncnc54)[C@H](OP(=O)(O)O)[C@@H]3O)[C@@H](O)[C@H]2O)C=CC1 [NADPH]
- Km (HMGR from E. faecalis): 30 µM
- Km (HMGR from S. aureus; read-out: Km^NADPH): 70 µM
- Km (HMGR from A. fulgidus; read-out: Km^NADPH): 500 µM

Structure (SMILES): O=C(O)c1ccccc1 [Benzoic Acid]
- calculated yield (qP/qS) ([1]; increased benzoic acid concentrations): increased
- specific farnesene productivity (qP) [1, 2]: did not change and even increased a little at intermediate concentrations
- specific growth rate (mu) [1, 2]: decreased linearly
- YCR50 (biomass yield): 2.0 mM

Structure (SMILES): C/C=C/C=C/C(=O)O [Sorbic Acid]
- YCR50 (biomass yield): 1.3 mM

Structure (SMILES): CC(=O)O [Acetic Acid]
- YCR50 (biomass yield): 105.0 mM

Structure (SMILES): NC(=O)C1=CN([C@@H]2O[C@H](COP(=O)(O)OP(=O)(O)OC[C@H]3O[C@@H](n4cnc5c(N)ncnc54)[C@H](O)[C@@H]3O)[C@@H](O)[C@H]2O)C=CC1 [NADH]
- Km (HMGR from P. mevalonii): 80 µM
- Km (HMGR from S. aureus; read-out: Km^NADH): 100 µM
- Km (HMGR from A. fulgidus; read-out: Km^NADH): 160 µM
